This is an account of results in article PMC3130094 (Pharmacological research : the official journal of the …, 2011).

Test [1] deals with ND7/104 cells. Put plainly: Ratiometric Fura-2 calcium imaging, ND7/104 cells. In kind it is cell-based, rat/mouse hybrid. Conditions: for Effect on ET-1 (30 nM) calcium transient: MDL-12,330A 50 µM, five minutes before ET-1, ND7/104 cells.
Test [2] has as its system HEK 293T cells. Put plainly: Ratiometric Fura-2 calcium imaging, HEK 293T cells. To be noted: for Effect on ET-1 (30 nM) calcium transient: MDL-12,330A 50 µM, five minutes before ET-1, HEK 293T cells. In kind it is cell-based, human.
Another test relates to HEK 293 cells. Put plainly: Ratiometric Fura-2 calcium imaging, HEK 293 cells. In kind it is cell-based, human.
Test [3] has as its system ET receptors (ETA/ETB) on intact ND7/104 cells. As to the kind of experiment: Competition binding against 30 pM [125I]-ET-1, intact ND7/104 cells. Also on record: species or system rat/mouse hybrid. Conditions: 100 nM BQ-123, ND7/104 cells.
Test [4] addresses T1, ET receptors (ETA/ETB) on intact HEK 293T cells (Homo sapiens, UniProt P25101).
T1 sequence (P25101 21-427): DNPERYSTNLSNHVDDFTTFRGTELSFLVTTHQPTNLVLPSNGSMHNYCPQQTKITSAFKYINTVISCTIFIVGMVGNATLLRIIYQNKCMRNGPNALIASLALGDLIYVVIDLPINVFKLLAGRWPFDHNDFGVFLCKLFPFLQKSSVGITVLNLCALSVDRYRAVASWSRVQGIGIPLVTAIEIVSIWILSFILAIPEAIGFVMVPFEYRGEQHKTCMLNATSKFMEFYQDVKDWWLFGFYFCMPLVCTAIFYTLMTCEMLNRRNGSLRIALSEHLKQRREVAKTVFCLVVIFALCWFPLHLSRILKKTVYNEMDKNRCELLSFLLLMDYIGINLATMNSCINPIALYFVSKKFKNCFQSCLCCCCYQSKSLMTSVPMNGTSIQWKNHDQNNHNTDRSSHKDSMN
Conditions: read-out: High affinity KI BQ-123; HEK 293T cells, high affinity site (assumed ETA).

Test [5] has as its system ET receptors (ETA/ETB) on intact HEK 293T cells.
The test system of test [6] is ET receptors (ETA/ETB) on intact HEK 293 cells. To be noted: for Ki: HEK 293 cells.
For test [7], the system named is ND7/104 cells. Put plainly: Intracellular cAMP enzyme immunoassay, ND7/104 cells. In kind it is cell-based, rat/mouse hybrid. To be noted: ET-1 0.3 nM to 300 nM, 10 min 37 °C.
The subject of test [8] is HEK 293T cells. Put plainly: Intracellular cAMP enzyme immunoassay, HEK 293T cells. In kind it is cell-based, human. To be noted: ET-1 0.3 nM to 300 nM, 10 min 37 °C.
The test system of test [9] is ET receptors on intact ND7/104 cells. As to the kind of experiment: [125I]-ET-1 saturation binding to intact ND7/104 cells. Details: species or system rat/mouse hybrid. Conditions: read-out: KD (I-ET-1), 4 °C.
The target of test [10] is ET receptors in pituitary tissue sections. To be noted: pituitary tissue sections ref [32]; cited from earlier work.
The target in test [11] is cloned tagged-ETA receptors. Conditions: HEK 293 membranes ref [33]; cited from earlier work.
The target in test [12] is cloned tagged-ETB receptors. To be noted: HEK 293 membranes ref [33]; cited from earlier work.

Values joined by “and” are separate entries in the source; they are usually repeats but may differ in a detail not shown here. Identical values can stand only once. “Also recorded” adds a separate entry of the source. Like-named read-outs stand apart in the source and are kept apart here. Non-standard residues stand in square brackets, D forms with d. Residues, ends and D or L forms follow the SMILES beside them. No end group written: not given here.

Regarding `Nc1ncnc2c1ncn2[C@@H]1O[C@H](COP(=O)(O)OP(=O)(O)OP(=O)(O)O)[C@@H](O)[C@H]1O` [ATP], the “Calcium response to ATP” value in the test with ND7/104 cells [1] (ATP 40 µM, ND7/104 cells) is “induced a strong and comparable calcium response”; in the test with HEK 293T cells [2] (ATP 40 µM, HEK 293T cells), “induced a strong and comparable calcium response”; in the test with HEK 293 cells (ATP 40 µM), “induced a strong and comparable calcium response”.

Broadly, the Ki is the dissociation constant of the complex between target and ligand, obtained from inhibition or displacement. As to `CC(C)C[C@@H]1NC(=O)[C@@H](C(C)C)NC(=O)[C@@H]2CCCN2C(=O)[C@@H](CC(=O)O)NC(=O)[C@@H](Cc2c[nH]c3ccccc23)NC1=O` [BQ-123] (cyclo(L[dW][dD]P[dV]); ring closure inferred), the “ETA binding defined by BQ-123, share of specific [125I]-ET-1 binding” value in test [3] is 75.2 ± 22.2% and 75 ± 22%; in test [5] (100 nM BQ-123, HEK 293T cells), 75 ± 9%; in [6] (100 nM BQ-123, HEK 293 cells) it was 85.3 ± 19% and 85 ± 19%. The “Effect on ET-1 (30 nM) stimulated calcium increase” value is on record as “blocked; also recorded: completely prevented” in the test with ND7/104 cells [1] (BQ-123 50 nM, ND7/104 cells) and “blocked; also recorded: completely prevented” in the test on HEK 293T cells [2] (BQ-123 50 nM, HEK 293T cells). Besides, the Ki worked out at 5.47 ± 1.52 nM in test [4]; 0.21 ± 0.01 nM in [5] (read-out: KI (BQ-123), HEK 293T cells, 30 pM [125I]-ET-1); 0.39 ± 0.14 nM in [6] (read-out: KI (BQ-123), 30 pM [125I]-ET-1); 195 ± 136 nM in test [6] (read-out: Low affinity KI BQ-123, low affinity site). For the same compound, in test [5] (HEK 293T cells, low affinity site), the “Low affinity Ki BQ-123” value is reported as “too high to allow its estimation”.

For the compound `CCCC[C@@H](NC(=O)[C@@H](Cc1cn(C(=O)OC)c2ccccc12)NC(=O)[C@H](CC(C)(C)C)NC(=O)N1[C@H](C)CCC[C@@H]1C)C(=O)O` [BQ-788], the “Effect on ET-1 (30 nM) stimulated calcium increase” value in the test with ND7/104 cells [1] (BQ-788 100 nM (Figure 6B: 100 and 200 nM), ND7/104 cells) is reported as “without effect; also recorded: not affected”; in the test on HEK 293T cells [2] (BQ-788 100 nM (Figure 6B: 100 and 200 nM), HEK 293T cells), “without effect; also recorded: not affected”.

Regarding `Cc1cc(C)cc(C(=O)N(C)[C@H](Cc2ccc(-c3ccccc3)cc2)C(=O)N[C@@H](Cc2c[nH]c3ccccc23)C(=O)O)c1` [IRL-2500], the “Effect on ET-1 (30 nM) stimulated calcium increase” value is recorded as “without effect; also recorded: not affected” in the test on ND7/104 cells [1] (IRL-2500 50 nM, ND7/104 cells) and “without effect; also recorded: not affected” with HEK 293T cells [2] (IRL-2500 50 nM, HEK 293T cells).

For `Cl.c1ccc(C2CCCC2NC2=NCCCCCCCCCCC2)cc1` (stereo not drawn) [MDL-12,330A], the “Effect on calcium response to ATP” value with ND7/104 cells [1] (MDL 12,330A 50 µM preincubation, ND7/104 cells) is “markedly diminished response to ATP”. In addition, the “Effect on ET-1 (30 nM) calcium transient” value is reported as “same outcome” in the test with ND7/104 cells [1], “did not affect negatively” with ND7/104 cells [1] (listed as MDL 12,330A), “same outcome” in the test on HEK 293T cells [2] and “did not affect negatively” in the test with HEK 293T cells [2] (listed as MDL 12,330A). In addition, the “Basal [Ca2+]in on application of antagonist/inhibitor alone” value was “did not produce a significant effect; also recorded: did not elicit a significant rise of [Ca^2+]in” in the test with ND7/104 cells [1] (ND7/104 cells, MDL 12,330A 50 µM, data not shown) and “did not produce a significant effect; also recorded: did not elicit a significant rise of [Ca^2+]in” in the test on HEK 293T cells [2] (HEK 293T cells, MDL 12,330A 50 µM, data not shown).

As to `COc1ccc2c(c1)CC[C@@H]1[C@@H]2CC[C@]2(C)[C@@H](NCCCCCCN3C(=O)C=CC3=O)CC[C@@H]12` [U73122], the “Effect on ET-1 (30 nM) induced calcium transient” value in the test with ND7/104 cells [1] (U73122 10 µM, 30 min pretreatment, normalized to ionomycin, ND7/104 cells) is “complete inhibition”; in the test on HEK 293T cells [2] (U73122 10 µM, 30 min pretreatment, normalized to ionomycin, HEK 293T cells), “complete inhibition”. The “Effect on calcium response to ATP” value in the test with ND7/104 cells [1] (U73122 10 µM, ND7/104 cells) is reported as “abrogated”; with HEK 293T cells [2] (U73122 10 µM, HEK 293T cells) it was “abrogated”. The “Effect on response elicited by bradykinin” value in the test with ND7/104 cells [1] (U73122, ND7/104 cells, data not shown) is reported as “does not inhibit”.

“Endothelin-1 (CSCSSLMDKECVYFCHLDIIW; ends and bridges not checked; cysteine pairing not given here; UniProt P05305 53-73, looked up) [ET-1]”: the “Share of cells showing [Ca2+]in mobilization” value with ND7/104 cells [1] (ET-1 30 nM and 100 nM, ND7/104 cells) is ~ 35%; in the test on HEK 293T cells [2] (ET-1 30 nM and 100 nM, HEK 293T cells), ~ 35%. For the same compound, the “[Ca2+]in response to ET-1 (normalized to ATP 40 µM)” value in the test with ND7/104 cells [1] (ET-1 30 or 100 nM, ND7/104 cells) was “caused an increase in [Ca]in”; with HEK 293T cells [2] (ET-1 30 or 100 nM, HEK 293T cells), “caused an increase in [Ca]in”; in the test on HEK 293 cells (ET-1 30 or 100 nM), “neither of these concentrations of ET-1 produced a detectable increase of [Ca^2+]in; also recorded: does not promote intracellular calcium mobilization; also recorded: this effect was not observed”. Also, the “[Ca2+]in response to ET-1 in the absence of extracellular calcium” value in the test with ND7/104 cells [1] (calcium-free Ringer, ND7/104 cells) is “not diminished; also recorded: did not affect the response”; in the test with HEK 293T cells [2] (calcium-free Ringer, HEK 293T cells), “not diminished; also recorded: did not affect the response”. Also, the “Intracellular cAMP accumulation” value in the test with ND7/104 cells [7] and in the test with HEK 293T cells [8] was “did not record a rise of intracellular cAMP; also recorded: None of the ET-1 concentrations tested produced a significant effect” in each case.

In general, Kd refers to the equilibrium constant for the complex coming apart. As for “[^125I]-ET-1: radio-iodinated endothelin-1 used as radioligand”, the Kd in test [9] is 0.07 ± 0.01 nM; in [10], 0.071 nM; in [11] it was ~0.03 nM; in test [12], ~0.01 nM.
